# Data as given in patent US20130137741A1 (ALCON RESEARCH, LTD., priority 2009, published 2013).
# pIC50: −log10 of the molar value.
# System: FGFR
# Test: Kinase inhibition, cell-free enzymatic assay
# Type: biochemical
# Settings: 1 mM ATP
compound,measurement,value
"Cc1ccc(F)c(NC(=O)Nc2ccc(-c3cccc4[nH]nc(N)c34)cc2)c1 [RTK Inhibitor, N-[4-(3-amino-1H-indazol-4-yl)phenyl]-N′-(2-fluoro-5-methylphenyl) urea]",pIC50,< 4.90
